Reference: PubChem BioAssay (NCI)
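A five-concentration, 48-hour dose response in 96-well plates underlies each endpoint, interpolated linearly between surrounding concentrations. At the GI50, growth is halved. TGI is the concentration that stops growth completely.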

What was measured:
Experiment in all cases: inhibition of tumour cell growth, NCI panel, 48 h
786-0 renal = test system: 786-0 renal
A498 renal = test system: A498 renal
A549 NSCLC = test system: A549 NSCLC
ACHN renal = test system: ACHN renal
BT-549 breast = test system: BT-549 breast
CAKI-1 renal = test system: CAKI-1 renal
CCRF-CEM leukemia = test system: CCRF-CEM leukemia
COLO 205 colon = test system: COLO 205 colon
DU-145 prostate = test system: DU-145 prostate
EKVX NSCLC = test system: EKVX NSCLC
HCC-2998 colon = test system: HCC-2998 colon
HCT-116 colon = test system: HCT-116 colon
HCT-15 colon = test system: HCT-15 colon
HL-60(TB) leukemia = test system: HL-60(TB) leukemia
HOP-62 NSCLC = test system: HOP-62 NSCLC
HOP-92 NSCLC = test system: HOP-92 NSCLC
HS 578T breast = test system: HS 578T breast
HT29 colon = test system: HT29 colon
K-562 leukemia = test system: K-562 leukemia
KM12 colon = test system: KM12 colon
LOX IMVI melanoma = test system: LOX IMVI melanoma
M14 melanoma = test system: M14 melanoma
MALME-3M melanoma = test system: MALME-3M melanoma
MCF7 breast = test system: MCF7 breast
MDA-MB-231 breast = test system: MDA-MB-231 breast
MDA-MB-435 = test system: MDA-MB-435
MDA-MB-468 breast = test system: MDA-MB-468 breast
MOLT-4 leukemia = test system: MOLT-4 leukemia
NCI-H226 lung = test system: NCI-H226 lung
NCI-H23 lung = test system: NCI-H23 lung
NCI-H460 lung = test system: NCI-H460 lung
NCI-H522 lung = test system: NCI-H522 lung
NCI/ADR-RES ovarian = test system: NCI/ADR-RES ovarian
OVCAR-3 ovarian = test system: OVCAR-3 ovarian
OVCAR-4 ovarian = test system: OVCAR-4 ovarian
OVCAR-5 ovarian = test system: OVCAR-5 ovarian
OVCAR-8 ovarian = test system: OVCAR-8 ovarian
PC-3 prostate = test system: PC-3 prostate
RPMI-8226 leukemia = test system: RPMI-8226 leukemia
RXF 393 renal = test system: RXF 393 renal
SF-268 CNS = test system: SF-268 CNS
SF-295 CNS = test system: SF-295 CNS
SF-539 CNS = test system: SF-539 CNS
SK-MEL-2 melanoma = test system: SK-MEL-2 melanoma
SK-MEL-28 melanoma = test system: SK-MEL-28 melanoma
SK-MEL-5 melanoma = test system: SK-MEL-5 melanoma
SK-OV-3 ovarian = test system: SK-OV-3 ovarian
SN12C renal = test system: SN12C renal
SNB-19 CNS = test system: SNB-19 CNS
SNB-75 CNS = test system: SNB-75 CNS
SR leukemia = test system: SR leukemia
SW-620 colon = test system: SW-620 colon
T-47D breast = test system: T-47D breast
TK-10 renal = test system: TK-10 renal
U251 CNS = test system: U251 CNS
UACC-257 melanoma = test system: UACC-257 melanoma
UACC-62 melanoma = test system: UACC-62 melanoma
UO-31 renal = test system: UO-31 renal

`COc1cncc(-c2ccc3ncnc(N4CCc5ccc(Cl)cc54)c3c2)c1` gave a GI50 (786-0 renal) of 1.61 µM, a TGI (786-0 renal) of 15.8 µM and a GI50 (A498 renal) of 0.371 µM. The TGI (A498 renal) was 4.02 µM, the GI50 (A549 NSCLC) was 1.85 µM and the TGI (A549 NSCLC) was 18.4 µM. For the same compound, the GI50 (ACHN renal) was 1.04 µM, the TGI (ACHN renal) was 15.5 µM and the GI50 (BT-549 breast) was 1.78 µM. For the same compound, the TGI (BT-549 breast) was 8.41 µM, the GI50 (CAKI-1 renal) was 0.885 µM and the TGI (CAKI-1 renal) was 13.8 µM. For the same compound, the GI50 (CCRF-CEM leukemia) was 3.13 µM, the TGI (CCRF-CEM leukemia) was 54.1 µM and the GI50 (COLO 205 colon) was 4.4 µM. The TGI (COLO 205 colon) was 23 µM, the GI50 (DU-145 prostate) was 1.98 µM and the TGI (DU-145 prostate) was 27 µM. It also gave a GI50 (EKVX NSCLC) of 1.22 µM, a TGI (EKVX NSCLC) of 11.5 µM and a GI50 (HCC-2998 colon) of 3.48 µM. It also gave a TGI (HCC-2998 colon) of 19.8 µM, a GI50 (HCT-116 colon) of 2.97 µM and a TGI (HCT-116 colon) of 77.7 µM. It also gave a GI50 (HCT-15 colon) of 3.04 µM, a TGI (HCT-15 colon) of 19.9 µM and a TGI (HL-60(TB) leukemia) of 6.2 µM. The GI50 (HOP-62 NSCLC) was 2.19 µM, the TGI (HOP-62 NSCLC) was 24.9 µM and the GI50 (HOP-92 NSCLC) was 2.24 µM. For the same compound, the TGI (HOP-92 NSCLC) was 17.8 µM, the GI50 (HS 578T breast) was 1.48 µM and the TGI (HS 578T breast) was 6.5 µM. For the same compound, the GI50 (HT29 colon) was 3.11 µM, the TGI (HT29 colon) was 20.5 µM and the GI50 (K-562 leukemia) was 4.56 µM. For the same compound, the TGI (K-562 leukemia) was > 100 µM, the GI50 (KM12 colon) was 2.58 µM and the TGI (KM12 colon) was 16.4 µM. It also gave a GI50 (LOX IMVI melanoma) of 3.28 µM, a TGI (LOX IMVI melanoma) of 20.5 µM and a GI50 (M14 melanoma) of 7.6 µM. For the same compound, the TGI (M14 melanoma) was 37.4 µM, the GI50 (MALME-3M melanoma) was 9.11 µM and the TGI (MALME-3M melanoma) was 24.2 µM. The GI50 (MCF7 breast) was 1.74 µM, the TGI (MCF7 breast) was 11.3 µM and the GI50 (MDA-MB-231 breast) was 3.43 µM. The TGI (MDA-MB-231 breast) was 33.1 µM, the GI50 (MDA-MB-435) was 4.05 µM and the TGI (MDA-MB-435) was 22.3 µM. The GI50 (MDA-MB-468 breast) was 0.231 µM, the TGI (MDA-MB-468 breast) was 2.26 µM and the GI50 (MOLT-4 leukemia) was 1.96 µM. For the same compound, the TGI (MOLT-4 leukemia) was 6.96 µM, the GI50 (NCI-H226 lung) was 2.04 µM and the TGI (NCI-H226 lung) was 18.3 µM. For the same compound, the GI50 (NCI-H23 lung) was 5.33 µM, the TGI (NCI-H23 lung) was 29.6 µM and the GI50 (NCI-H460 lung) was 3.65 µM. The TGI (NCI-H460 lung) was 20.3 µM, the GI50 (NCI-H522 lung) was 2.17 µM and the TGI (NCI-H522 lung) was 12.1 µM. For the same compound, the GI50 (NCI/ADR-RES ovarian) was 2.16 µM, the TGI (NCI/ADR-RES ovarian) was 27.9 µM and the GI50 (OVCAR-3 ovarian) was 2.41 µM. The TGI (OVCAR-3 ovarian) was 18.4 µM, the GI50 (OVCAR-4 ovarian) was 2.69 µM and the TGI (OVCAR-4 ovarian) was 22.9 µM. For the same compound, the GI50 (OVCAR-5 ovarian) was 3.13 µM, the TGI (OVCAR-5 ovarian) was 23.7 µM and the GI50 (OVCAR-8 ovarian) was 3.98 µM. For the same compound, the TGI (OVCAR-8 ovarian) was 55.9 µM, the GI50 (PC-3 prostate) was 2.47 µM and the TGI (PC-3 prostate) was > 100 µM. The GI50 (RPMI-8226 leukemia) was 2.97 µM, the TGI (RPMI-8226 leukemia) was > 100 µM and the GI50 (RXF 393 renal) was 1.28 µM. The TGI (RXF 393 renal) was 4.86 µM, the GI50 (SF-268 CNS) was 3.02 µM and the TGI (SF-268 CNS) was 26.9 µM. For the same compound, the GI50 (SF-295 CNS) was 3.53 µM, the TGI (SF-295 CNS) was 29.6 µM and the GI50 (SF-539 CNS) was 3.41 µM. For the same compound, the TGI (SF-539 CNS) was 14.4 µM, the GI50 (SK-MEL-2 melanoma) was 4.33 µM and the TGI (SK-MEL-2 melanoma) was 19.7 µM. The GI50 (SK-MEL-28 melanoma) was 7.02 µM, the TGI (SK-MEL-28 melanoma) was 21.9 µM and the GI50 (SK-MEL-5 melanoma) was 2.62 µM. For the same compound, the TGI (SK-MEL-5 melanoma) was 12.4 µM, the GI50 (SK-OV-3 ovarian) was 2.81 µM and the TGI (SK-OV-3 ovarian) was 16.4 µM. It also gave a GI50 (SN12C renal) of 2.42 µM, a TGI (SN12C renal) of 21.3 µM and a GI50 (SNB-19 CNS) of 3.56 µM. For the same compound, the TGI (SNB-19 CNS) was 27 µM, the GI50 (SNB-75 CNS) was 0.623 µM and the TGI (SNB-75 CNS) was 5.25 µM. For the same compound, the GI50 (SR leukemia) was 3.03 µM, the TGI (SR leukemia) was 25.4 µM and the GI50 (SW-620 colon) was 6.17 µM. For the same compound, the TGI (SW-620 colon) was 26.9 µM, the GI50 (T-47D breast) was 1.23 µM and the TGI (T-47D breast) was 10 µM. For the same compound, the GI50 (TK-10 renal) was 1.27 µM, the TGI (TK-10 renal) was 9.58 µM and the GI50 (U251 CNS) was 4.24 µM. It also gave a TGI (U251 CNS) of 24 µM, a GI50 (UACC-257 melanoma) of 9.01 µM and a TGI (UACC-257 melanoma) of 28.5 µM. For the same compound, the GI50 (UACC-62 melanoma) was 2.49 µM, the TGI (UACC-62 melanoma) was 16.3 µM and the GI50 (UO-31 renal) was 0.718 µM. It also gave a TGI (UO-31 renal) of 11.8 µM.
